Calls of active or inactive are those of the source.
Legend:
[1] = system: Vero; assay: viability loss in Vero cells – cell-based, plate reader, cherry-pick samples, cytotoxicity control, dose response (AID 687020); assay type: functional; details: Chlorocebus sabaeus
[2] = T. cruzi growth inhibition in host cells, dose response, cell-based, plate reader, dry powder, set 2 (AID 652275); assay type: functional
[3] = molecular target: Broad substrate specificity ATP-binding cassette transporter ABCG2 (Homo sapiens, UniProt Q9UNQ0); assay: blockers of JC-1 export by ABCG2 – Ig-MXP3 cells, flow cytometry, dose response (AID 1690); assay type: functional
[4] = general mammalian cell viability loss – activator set, cherry-pick, cytotoxicity control for miR-122 modulator project, dose response (AID 720690); assay type: functional, cell-based;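 further: HEK293T human cells scored for general mammalian cytotoxicity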
[5] = activation of miR-122 Renilla sensor silencing – cell-based, Huh7 psiCHECK-miR122, Renilla luciferase, cherry-picked, dose response (AID 651956); assay type: functional;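 further: huh7 hepatoma cells stably carrying a psiCHECK-2 miR-122 sensor plasmid; renilla luciferase signal reporting endogenous miR-122 activity after 48 h compound exposure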
[6] = HepG2 cell viability loss – cherry-picked samples, cytotoxicity control, dose response (AID 1053183); assay type: functional, cell-based
[7] = anti-trypanosomal activity in BESM host cells – imaging, CA-I/72 strain, bovine embryo skeletal muscle, dry powder, dose response (AID 651885); assay type: functional, cell-based
[8] = Counterscreen for antagonists of the human trace amine associated receptor 1 (hTAAR1): Fluorescence-based cell-based high throughput dose response assay to identify nonselective Ga16 antagonists.; assay type: functional
[9] = molecular target: T1, Trace amine-associated receptor 1 (Homo sapiens, UniProt Q96RJ0); assay: Fluorescence-based cell-based high throughput dose response assay to identify antagonists of the human trace amine associated receptor 1 (TAAR1).; assay type: functional
T1 sequence (Q96RJ0 whole entry): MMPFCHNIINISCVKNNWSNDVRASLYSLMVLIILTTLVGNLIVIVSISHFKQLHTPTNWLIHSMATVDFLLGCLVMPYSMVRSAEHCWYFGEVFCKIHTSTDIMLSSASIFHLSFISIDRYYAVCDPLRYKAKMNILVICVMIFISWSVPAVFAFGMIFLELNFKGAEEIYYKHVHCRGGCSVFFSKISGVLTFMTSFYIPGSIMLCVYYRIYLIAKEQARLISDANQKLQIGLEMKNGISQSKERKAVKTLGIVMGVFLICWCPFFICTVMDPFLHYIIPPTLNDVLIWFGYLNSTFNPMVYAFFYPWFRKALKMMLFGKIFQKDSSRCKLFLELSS

[10] = molecular target: T1, Trace amine-associated receptor 1; assay: Counterscreen for antagonists of the human trace amine associated receptor 1 (hTAAR1): Fluorescence-based cell-based high throughput dose response assay to identify TAAR1 Agonists.; assay type: functional
[11] = Counterscreen for […] of the human trace amine associated receptor 1 (TAAR1): Fluorescence-based cell-based high throughput dose response assay to identify nonselective Ga16 agonists.; assay type: functional
[12] = molecular target: Dual specificity protein phosphatase 3 (Homo sapiens, UniProt P51452); assay: VHR phosphatase inhibition, dose response, selectivity assay for STEP inhibitor project, biochemical (AID 602374); assay type: functional; details: read-out: IC50_Mean
[13] = molecular target: T2, Carboxy-terminal domain RNA polymerase II polypeptide A small phosphatase 1 (Homo sapiens, UniProt Q9GZU7); assay: CTDSP1 inhibitors, concentration-response, biochemical, absorbance readout, ultra-high-throughput screen actives (AID 540297); assay type: functional
T2 sequence (Q9GZU7 whole entry): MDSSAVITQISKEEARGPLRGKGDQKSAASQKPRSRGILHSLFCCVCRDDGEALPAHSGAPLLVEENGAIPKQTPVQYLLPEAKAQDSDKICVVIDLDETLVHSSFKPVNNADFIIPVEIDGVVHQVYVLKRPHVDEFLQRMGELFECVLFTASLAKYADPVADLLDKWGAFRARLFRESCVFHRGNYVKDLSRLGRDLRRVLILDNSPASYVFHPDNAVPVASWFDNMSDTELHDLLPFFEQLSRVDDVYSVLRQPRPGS

[14] = molecular target: Tyrosine-protein phosphatase non-receptor type 5 (Homo sapiens, UniProt P54829); assay: PTPN5 enzyme inhibition – biochemical, fluorescence intensity, uHTS hits, confirmation (AID 602372); assay type: functional; details: read-out: IC50_Mean
[15] = molecular target: Tyrosine-protein phosphatase non-receptor type 11 (Homo sapiens, UniProt Q06124); assay: PTPN11 enzyme inhibitors – biochemical, selectivity assay for STEP inhibitor project, dose response (AID 602367); assay type: functional; details: read-out: IC50_Mean
[16] = molecular target: T3, Tyrosine-protein phosphatase non-receptor type 22 (Homo sapiens, UniProt Q9Y2R2); assay: lymphoid phosphatase LYP inhibitors – biochemical, selectivity assay for STEP inhibitor project, dose response (AID 624241); assay type: functional
T3 sequence (Q9Y2R2 whole entry): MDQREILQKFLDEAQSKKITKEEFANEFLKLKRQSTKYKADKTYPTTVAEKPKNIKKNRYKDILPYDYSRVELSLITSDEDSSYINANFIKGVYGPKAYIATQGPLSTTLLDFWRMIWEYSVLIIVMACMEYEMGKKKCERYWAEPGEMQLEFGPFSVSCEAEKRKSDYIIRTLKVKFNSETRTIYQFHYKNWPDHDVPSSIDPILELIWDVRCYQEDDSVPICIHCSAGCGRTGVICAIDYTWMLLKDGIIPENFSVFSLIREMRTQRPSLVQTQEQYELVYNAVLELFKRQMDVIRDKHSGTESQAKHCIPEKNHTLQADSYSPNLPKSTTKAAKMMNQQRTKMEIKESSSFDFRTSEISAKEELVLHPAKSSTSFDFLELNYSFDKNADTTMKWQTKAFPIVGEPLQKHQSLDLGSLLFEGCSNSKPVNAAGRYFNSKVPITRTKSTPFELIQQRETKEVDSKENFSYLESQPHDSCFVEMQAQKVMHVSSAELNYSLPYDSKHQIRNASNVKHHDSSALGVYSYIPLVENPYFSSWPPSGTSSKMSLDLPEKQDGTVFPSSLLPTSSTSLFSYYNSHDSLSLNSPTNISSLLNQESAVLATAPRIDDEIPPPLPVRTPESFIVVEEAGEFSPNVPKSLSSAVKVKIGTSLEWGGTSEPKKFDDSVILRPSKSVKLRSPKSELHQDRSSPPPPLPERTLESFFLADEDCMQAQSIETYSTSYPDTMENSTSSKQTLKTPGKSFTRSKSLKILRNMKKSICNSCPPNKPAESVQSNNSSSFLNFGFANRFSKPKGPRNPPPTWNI

Tyrosine-protein phosphatase non-receptor type 5, sequence (P54829 whole entry): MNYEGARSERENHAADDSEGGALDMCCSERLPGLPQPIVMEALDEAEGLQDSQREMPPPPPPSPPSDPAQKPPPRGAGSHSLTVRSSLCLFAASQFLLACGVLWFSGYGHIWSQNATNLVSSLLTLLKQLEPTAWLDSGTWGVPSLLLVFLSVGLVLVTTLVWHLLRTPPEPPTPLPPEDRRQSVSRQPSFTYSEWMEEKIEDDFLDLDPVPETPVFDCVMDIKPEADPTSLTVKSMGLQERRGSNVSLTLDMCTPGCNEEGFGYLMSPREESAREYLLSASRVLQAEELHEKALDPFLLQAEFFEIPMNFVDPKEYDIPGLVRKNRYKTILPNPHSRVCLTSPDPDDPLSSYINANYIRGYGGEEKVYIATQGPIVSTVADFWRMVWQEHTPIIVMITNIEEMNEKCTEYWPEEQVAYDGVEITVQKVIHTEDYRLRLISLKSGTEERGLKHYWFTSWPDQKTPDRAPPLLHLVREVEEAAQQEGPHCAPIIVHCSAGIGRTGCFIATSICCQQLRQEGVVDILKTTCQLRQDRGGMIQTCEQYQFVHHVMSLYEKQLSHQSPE
Broad substrate specificity ATP-binding cassette transporter ABCG2, sequence (Q9UNQ0 whole entry): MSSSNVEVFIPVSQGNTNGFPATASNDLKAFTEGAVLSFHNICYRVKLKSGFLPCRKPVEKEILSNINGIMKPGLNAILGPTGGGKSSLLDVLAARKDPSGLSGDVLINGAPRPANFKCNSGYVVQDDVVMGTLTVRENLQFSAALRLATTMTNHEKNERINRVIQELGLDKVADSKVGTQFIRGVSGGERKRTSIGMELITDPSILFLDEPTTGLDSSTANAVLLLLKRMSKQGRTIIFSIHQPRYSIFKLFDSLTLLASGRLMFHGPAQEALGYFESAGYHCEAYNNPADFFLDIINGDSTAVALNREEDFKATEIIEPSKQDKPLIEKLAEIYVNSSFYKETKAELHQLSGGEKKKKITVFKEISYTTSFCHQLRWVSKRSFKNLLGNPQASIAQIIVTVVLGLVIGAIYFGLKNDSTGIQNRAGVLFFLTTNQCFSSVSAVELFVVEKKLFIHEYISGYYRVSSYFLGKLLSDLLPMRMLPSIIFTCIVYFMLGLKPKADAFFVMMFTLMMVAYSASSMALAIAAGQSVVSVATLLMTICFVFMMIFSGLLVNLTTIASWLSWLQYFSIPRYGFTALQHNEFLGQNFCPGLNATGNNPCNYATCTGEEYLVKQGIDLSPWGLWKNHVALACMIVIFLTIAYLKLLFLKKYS
Dual specificity protein phosphatase 3, sequence (P51452 whole entry, the tested form may be a part): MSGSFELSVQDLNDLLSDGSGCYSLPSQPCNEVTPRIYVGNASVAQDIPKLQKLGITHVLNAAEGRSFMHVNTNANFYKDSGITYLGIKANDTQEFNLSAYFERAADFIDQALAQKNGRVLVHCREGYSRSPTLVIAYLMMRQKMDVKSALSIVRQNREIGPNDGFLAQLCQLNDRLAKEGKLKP
Tyrosine-protein phosphatase non-receptor type 11, sequence (Q06124 whole entry): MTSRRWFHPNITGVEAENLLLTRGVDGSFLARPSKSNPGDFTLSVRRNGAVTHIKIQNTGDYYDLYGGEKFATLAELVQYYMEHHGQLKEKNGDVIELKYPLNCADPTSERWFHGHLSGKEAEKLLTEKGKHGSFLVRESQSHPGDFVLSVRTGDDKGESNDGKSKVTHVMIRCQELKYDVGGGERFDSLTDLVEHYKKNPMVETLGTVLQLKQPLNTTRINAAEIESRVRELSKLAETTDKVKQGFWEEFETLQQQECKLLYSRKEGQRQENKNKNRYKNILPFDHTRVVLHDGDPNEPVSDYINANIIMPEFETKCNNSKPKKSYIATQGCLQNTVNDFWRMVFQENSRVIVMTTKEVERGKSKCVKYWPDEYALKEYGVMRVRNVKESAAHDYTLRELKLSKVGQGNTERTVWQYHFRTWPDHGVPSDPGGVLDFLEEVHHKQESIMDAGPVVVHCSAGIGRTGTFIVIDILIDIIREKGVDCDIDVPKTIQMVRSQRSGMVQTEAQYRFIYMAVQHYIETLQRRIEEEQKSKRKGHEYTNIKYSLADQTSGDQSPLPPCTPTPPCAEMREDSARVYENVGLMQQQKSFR

O=C(NCCN1CCC2(CC1)C(=O)NCN2c1ccccc1)c1ccccc1F
AC50 [1]: 31.5 µM (active)

CC(C)N1C[C@@H](CN(C)Cc2ccc(Cl)cc2)Oc2c(NC(=O)c3ccnn3C)cccc2C1=O
AC50 [2]: 0.334 µM (active)

CCOc1ccccc1NC(=O)C(OC(=O)c1ccc(N(C)C)cc1)c1ccccc1 (stereo unspecified)
EC50 [3]: 2.75 µM (active)

C[C@H](NC(=O)C[C@H]1CC[C@@H]2[C@@H](COc3ccc(NS(=O)(=O)c4ccc(Cl)cc4)cc3C(=O)N2C)O1)c1ccccc1
AC50 [4]: 29.5 µM (active) | AC50 [5]: 18.2 µM (active)

O=S(=O)(c1ccc(F)cc1)N1C[C@@H]2N[C@H](C1)[C@@H]2c1ccc(/C=C/c2ccccc2)cc1
AC50 [6]: 19.1 µM (active)

CC(C)N1C[C@H](C)[C@@H](CN(C)C(=O)OC(C)(C)C)Oc2c(NC(=O)c3ccncc3)cccc2C1=O
IC50 [7]: > 20 µM (inactive)

Cc1ccc(S(=O)(=O)N2[C@@H](c3ccc(Br)cc3)C(C(=O)O)=CC[C@H]2c2ccc(Cl)cc2)cc1
IC50 [8]: 17.5 µM (inactive) | IC50 [9]: 1.62 µM (active) | EC50 [10]: 13.1 µM (inactive) | EC50 [11]: > 29.9 µM (inactive)

O=C(O)Cc1cccc(O)c(=O)c1C(=O)O
IC50 [12]: 0.544 µM (active) | IC50 [13]: 3.9 µM (active) | IC50 [14]: 11.6 µM (active) | IC50 [15]: 0.376 µM (active) | IC50 [16]: 8.34 µM (active)
